According to PubChem BioAssay AID330 (DTP/NCI, 2004):
“And” between values parts separate entries of the source, which are not always exact repeats. Identical values can stand only once. Inconclusive results and toxic doses are left out.

Tested on: P388 leukemia ip, CD2F1 mice, survival T/C
Experiment: NCI In Vivo Anticancer Drug Screen. Data for tumor model P388 Leukemia (intraperitoneal) in CD2F1 (CDF1) mice
Conditions: endpoint: median survival time, higher = longer survival
Summary of the method: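 Mice carrying the transplanted tumor received test compound or vehicle. Survival was recorded in each group, and the value is the treated-group measurement divided by that of the vehicle-treated control group.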

[1] = dose: 240.0 mg/kg/injection, schedule: Q01DX005 (ip), vehicle: saline with Tween-80
[2] = dose: 100.0 mg/kg/injection, schedule: Q04DX002 (ip), vehicle: Klucel (hydroxypropylcellulose) (HPC)
[3] = dose: 200.0 mg/kg/injection, schedule: Q04DX002 (ip), vehicle: Klucel (hydroxypropylcellulose) (HPC)
[4] = dose: 60.0 mg/kg/injection, schedule: Q01DX005 (ip), vehicle: saline with Tween-80
[5] = dose: 120.0 mg/kg/injection, schedule: Q01DX005 (ip), vehicle: saline with Tween-80
[6] = dose: 12.5 mg/kg/injection, schedule: Q01DX005 (ip), vehicle: Klucel (hydroxypropylcellulose) (HPC)
[7] = dose: 25.0 mg/kg/injection, schedule: Q01DX005 (ip), vehicle: Klucel (hydroxypropylcellulose) (HPC)
[8] = dose: 50.0 mg/kg/injection, schedule: Q01DX005 (ip), vehicle: Klucel (hydroxypropylcellulose) (HPC)
[9] = dose: 100.0 mg/kg/injection, schedule: Q01DX005 (ip), vehicle: Klucel (hydroxypropylcellulose) (HPC)
[10] = dose: 50.0 mg/kg/injection, schedule: Q01DX009 (ip), vehicle: saline with Tween-80
[11] = dose: 100.0 mg/kg/injection, schedule: Q01DX009 (ip), vehicle: saline with Tween-80
[12] = dose: 200.0 mg/kg/injection, schedule: Q01DX009 (ip), vehicle: saline with Tween-80
[13] = dose: 200.0 mg/kg/injection, schedule: Q01DX005 (ip), vehicle: Klucel (hydroxypropylcellulose) (HPC)
[14] = dose: 50.0 mg/kg/injection, schedule: Q01DX009 (ip), vehicle: saline
[15] = dose: 100.0 mg/kg/injection, schedule: Q01DX009 (ip), vehicle: saline
[16] = dose: 200.0 mg/kg/injection, schedule: Q01DX009 (ip), vehicle: saline

Structure (SMILES): Oc1ccc(Br)cc1C=NCCS
- T/C (dose: 15.0 mg/kg/injection, schedule: Q01DX005 (ip), vehicle: saline with Tween-80): 97 % of control
- T/C (dose: 30.0 mg/kg/injection, schedule: Q01DX005 (ip), vehicle: saline with Tween-80): 94 % of control
- T/C [1]: 89 % of control

Structure (SMILES): CCOS(=O)(=O)CS(C)(=O)=O
- T/C (dose: 25.0 mg/kg/injection, schedule: Q01DX005 (ip), vehicle: saline): 118 % of control
- T/C (dose: 50.0 mg/kg/injection, schedule: Q01DX005 (ip), vehicle: saline): 118 % of control
- T/C (dose: 100.0 mg/kg/injection, schedule: Q01DX005 (ip), vehicle: saline): 160 % of control and 170 % of control
- T/C (dose: 150.0 mg/kg/injection, schedule: Q01DX005 (ip), vehicle: saline): 104 % of control

Structure (SMILES): CCOC(=O)C(Nc1cc([N+](=O)[O-])ccc1C(=O)OC(C)C)(OC(C)C)C(=O)OCC
- T/C [2]: 90 % of control
- T/C [3]: 91 % of control
- T/C (dose: 400.0 mg/kg/injection, schedule: Q04DX002 (ip), vehicle: Klucel (hydroxypropylcellulose) (HPC)): 90 % of control

Structure (SMILES): O=C(Nc1ccc(Cl)cc1)Nc1nnc2nc(CC(=O)c3ccc4ccccc4c3)c(=O)[nH]n12
- T/C [4]: 97 % of control
- T/C [5]: 99 % of control
- T/C [1]: 97 % of control

Structure (SMILES): CCCCCCCCCCCC1=c2o[nH]c2=C(c2ccccn2)C(=O)C1=O
- T/C (dose: 50.0 mg/kg/injection, schedule: Q01DX005 (ip), vehicle: saline with Tween-80): 94 % of control
- T/C (dose: 100.0 mg/kg/injection, schedule: Q01DX005 (ip), vehicle: saline with Tween-80): 86 % of control

Structure (SMILES): Cc1cc(C=C2C(=O)NC(=S)NC2=O)cc(C)c1O
- T/C (dose: 12.5 mg/kg/injection, schedule: Q01DX005 (ip), vehicle: saline with Tween-80): 101 % of control and 96 % of control and 97 % of control
- T/C (dose: 25.0 mg/kg/injection, schedule: Q01DX005 (ip), vehicle: saline with Tween-80): 105 % of control and 106 % of control and 118 % of control

Structure (SMILES): CCOc1c(OC)cc(C2c3cc4c(c(OCC)c3CC3COC(=O)C32)OCO4)cc1OC (configuration not stated)
- T/C [6]: 94 % of control
- T/C [7]: 91 % of control
- T/C [8]: 86 % of control
- T/C [9]: 97 % of control

Structure (SMILES): Cc1nc2c([N+](=O)[O-])c(N3CCN(c4ccccc4)CC3)c([N+](=O)[O-])cc2[nH]1
- T/C [10]: 100 % of control
- T/C [11]: 100 % of control
- T/C [12]: 99 % of control

Structure (SMILES): Cc1cc(=O)oc2cc3oc4c(c3cc12)CCCC4
- T/C [8]: 97 % of control
- T/C [9]: 92 % of control
- T/C [13]: 88 % of control

Structure (SMILES): Cc1c2ccncc2c(CNC(=O)C(N)Cc2c[nH]c3ccccc23)c2c3ccccc3n(C)c12 (configuration not stated)
- T/C (dose: 6.25 mg/kg/injection, schedule: Q04DX002 (ip), vehicle: saline with Tween-80): 108 % of control
- T/C (dose: 12.5 mg/kg/injection, schedule: Q04DX002 (ip), vehicle: saline with Tween-80): 112 % of control
- T/C (dose: 25.0 mg/kg/injection, schedule: Q04DX002 (ip), vehicle: saline with Tween-80): 115 % of control
- T/C (dose: 50.0 mg/kg/injection, schedule: Q04DX002 (ip), vehicle: saline with Tween-80): 117 % of control

Structure (SMILES): Cc1noc(C)c1-c1onc2ccc(Cl)cc12
- T/C (dose: 100.0 mg/kg/injection, schedule: Q01DX009 (ip), vehicle: Klucel (hydroxypropylcellulose) (HPC)): 96 % of control
- T/C (dose: 200.0 mg/kg/injection, schedule: Q01DX009 (ip), vehicle: Klucel (hydroxypropylcellulose) (HPC)): 96 % of control

Structure (SMILES): CCOC(=O)C1CC(C)CC1=O (configuration not stated)
- T/C [14]: 96 % of control
- T/C [15]: 98 % of control
- T/C [16]: 102 % of control

Structure (SMILES): c1ccc2c(c1)Sc1ccccc1N2CCCNC1=NCCO1
- T/C (dose: 12.5 mg/kg/injection, schedule: Q04DX003 (ip), vehicle: saline with Tween-80): 94 % of control
- T/C (dose: 25.0 mg/kg/injection, schedule: Q04DX003 (ip), vehicle: saline with Tween-80): 96 % of control
- T/C (dose: 50.0 mg/kg/injection, schedule: Q04DX003 (ip), vehicle: saline with Tween-80): 87 % of control
- T/C (dose: 200.0 mg/kg/injection, schedule: Q04DX003 (ip), vehicle: saline with Tween-80): 88 % of control
- T/C (dose: 400.0 mg/kg/injection, schedule: Q04DX003 (ip), vehicle: saline with Tween-80): 90 % of control

Structure (SMILES): COc1cc2c(cc1OC)C(C)C1c3cc4c(cc3CCN1C2)OCO4 (configuration not stated)
- T/C (dose: 50.0 mg/kg/injection, schedule: Q04DX003 (ip), vehicle: distilled water + Tween-80): 103 % of control and 100 % of control
- T/C (dose: 100.0 mg/kg/injection, schedule: Q04DX003 (ip), vehicle: distilled water + Tween-80): 97 % of control and 103 % of control
- T/C (dose: 200.0 mg/kg/injection, schedule: Q04DX003 (ip), vehicle: distilled water + Tween-80): 99 % of control and 103 % of control
- T/C (dose: 400.0 mg/kg/injection, schedule: Q04DX003 (ip), vehicle: distilled water + Tween-80): 103 % of control

Structure (SMILES): c1ccc(CC[n+]2ccccc2)cc1
- T/C (dose: 12.5 mg/kg/injection, schedule: Q01DX009 (ip), vehicle: saline): 88 % of control
- T/C (dose: 25.0 mg/kg/injection, schedule: Q01DX009 (ip), vehicle: saline): 87 % of control

Structure (SMILES): N#CC(CN1CCOCC1)CN1CCOCC1
- T/C [10]: 95 % of control
- T/C [11]: 101 % of control
- T/C [12]: 96 % of control

Structure (SMILES): O=C(NCCNC(=O)C12CC3CC(CC(C3)C1)C2)C12CC3CC(CC(C3)C1)C2
- T/C (dose: 6.0 mg/kg/injection, schedule: Q01DX005 (ip), vehicle: Klucel (hydroxypropylcellulose) (HPC)): 88 % of control
- T/C (dose: 12.0 mg/kg/injection, schedule: Q01DX005 (ip), vehicle: Klucel (hydroxypropylcellulose) (HPC)): 88 % of control
- T/C (dose: 100.0 mg/kg/injection, schedule: Q01DX001 (ip), vehicle: saline with Tween-80): 94 % of control
- T/C (dose: 200.0 mg/kg/injection, schedule: Q01DX001 (ip), vehicle: saline with Tween-80): 95 % of control
- T/C (dose: 400.0 mg/kg/injection, schedule: Q01DX001 (ip), vehicle: saline with Tween-80): 86 % of control

Structure (SMILES): FC(F)(F)c1nnc(-c2ccccc2)nn1
- T/C [2]: 100 % of control
- T/C [3]: 104 % of control

Structure (SMILES): NC1=C(O)C(=O)C(c2cccc(O)c2)O1 (configuration not stated)
- T/C [4]: 103 % of control
- T/C [5]: 100 % of control
- T/C [1]: 103 % of control

Structure (SMILES): O=C(c1ccccc1)N1C=CN(C(=O)c2ccccc2)C1c1nccn1C(=O)c1ccccc1
- T/C [10]: 105 % of control
- T/C [11]: 96 % of control
- T/C [12]: 91 % of control

Structure (SMILES): C=C1C(=O)O[C@@H]2C[C@H](C)[C@@H]3CC[C@H](O)[C@@]3(CO)C[C@H]12
- T/C [6]: 102 % of control
- T/C [7]: 102 % of control
- T/C [8]: 103 % of control and 104 % of control
- T/C [9]: 114 % of control
- T/C [13]: 122 % of control

Structure (SMILES): CCCC1CN2CCc3cc(OC)c(OC)cc3C2CC1=O (configuration not stated)
- T/C [14]: 100 % of control and 104 % of control
- T/C [15]: 112 % of control and 115 % of control
- T/C [16]: 120 % of control

Structure (SMILES): C/C=C1\C[C@@H]2C(OC)Nc3cc(O)c(OC)cc3C(=O)N2C1 (some centres not stated)
- T/C (dose: 0.01 mg/kg/injection, schedule: Q04DX003 (ip), vehicle: other): 97 % of control
- T/C (dose: 0.03 mg/kg/injection, schedule: Q04DX003 (ip), vehicle: other): 114 % of control
- T/C (dose: 0.1 mg/kg/injection, schedule: Q04DX003 (ip), vehicle: other): 123 % of control
- T/C (dose: 0.13 mg/kg/injection, schedule: Q04DX003 (ip), vehicle: other): 160 % of control
- T/C (dose: 0.25 mg/kg/injection, schedule: Q04DX003 (ip), vehicle: other): 163 % of control
- T/C (dose: 0.3 mg/kg/injection, schedule: Q04DX003 (ip), vehicle: other): 161 % of control
- T/C (dose: 0.5 mg/kg/injection, schedule: Q04DX003 (ip), vehicle: other): 168 % of control
- T/C (dose: 1.0 mg/kg/injection, schedule: Q04DX003 (ip), vehicle: other): 93 % of control
- T/C (dose: 1.0 micrograms/kg/injection, schedule: Q01DX009 (ip), vehicle: other): 110 % of control
- T/C (dose: 3.0 micrograms/kg/injection, schedule: Q01DX009 (ip), vehicle: other): 102 % of control
- T/C (dose: 10.0 micrograms/kg/injection, schedule: Q01DX009 (ip), vehicle: other): 118 % of control
- T/C (dose: 100.0 micrograms/kg/injection, schedule: Q01DX009 (ip), vehicle: other): 168 % of control
- T/C (dose: 300.0 micrograms/kg/injection, schedule: Q01DX009 (ip), vehicle: other): 200 % of control

Structure (SMILES): CCOC(=O)c1c(N)sc2c1CCC2
- T/C (dose: 100.0 mg/kg/injection, schedule: Q01DX001 (ip), vehicle: saline sonified): 100 % of control
- T/C (dose: 200.0 mg/kg/injection, schedule: Q01DX001 (ip), vehicle: saline sonified): 95 % of control
- T/C (dose: 400.0 mg/kg/injection, schedule: Q01DX001 (ip), vehicle: saline sonified): 100 % of control
